Measured values published in publication PMC6370995, “Phase I study of PF‐04895162, a Kv7 channel opener, reveals unexpected hepatotoxicity in healthy subjects, but not rats or monkeys: clinical evidence of disrupted bile acid homeostasis” (Pharmacology Research & Perspectives, 2019).
Read-outs that look alike come from different tables or passages of the source.

Columns and labels:
[1] = HepG2 72 hour cytotoxicity assay based on ATP depletion; format: cell-based; details: human, HepG2 cells; HepG2, after 72 hours
Description: […]

human hepatocytes = experiment: human hepatocyte imaging assay (cell loss); format: cell-based; details: 48 hours; three assessments in two human hepatocyte lots (LBN and HU4165)
Description: […]

MRP3 = target: T1, MRP3 (Homo sapiens, UniProt O15438); experiment: MRP3 transporter inhibition in vesicles from HEK293 cells; format: biochemical
T1 construct: host or cells: membrane vesicles from HEK293 cells
T1 sequence (O15438 whole entry): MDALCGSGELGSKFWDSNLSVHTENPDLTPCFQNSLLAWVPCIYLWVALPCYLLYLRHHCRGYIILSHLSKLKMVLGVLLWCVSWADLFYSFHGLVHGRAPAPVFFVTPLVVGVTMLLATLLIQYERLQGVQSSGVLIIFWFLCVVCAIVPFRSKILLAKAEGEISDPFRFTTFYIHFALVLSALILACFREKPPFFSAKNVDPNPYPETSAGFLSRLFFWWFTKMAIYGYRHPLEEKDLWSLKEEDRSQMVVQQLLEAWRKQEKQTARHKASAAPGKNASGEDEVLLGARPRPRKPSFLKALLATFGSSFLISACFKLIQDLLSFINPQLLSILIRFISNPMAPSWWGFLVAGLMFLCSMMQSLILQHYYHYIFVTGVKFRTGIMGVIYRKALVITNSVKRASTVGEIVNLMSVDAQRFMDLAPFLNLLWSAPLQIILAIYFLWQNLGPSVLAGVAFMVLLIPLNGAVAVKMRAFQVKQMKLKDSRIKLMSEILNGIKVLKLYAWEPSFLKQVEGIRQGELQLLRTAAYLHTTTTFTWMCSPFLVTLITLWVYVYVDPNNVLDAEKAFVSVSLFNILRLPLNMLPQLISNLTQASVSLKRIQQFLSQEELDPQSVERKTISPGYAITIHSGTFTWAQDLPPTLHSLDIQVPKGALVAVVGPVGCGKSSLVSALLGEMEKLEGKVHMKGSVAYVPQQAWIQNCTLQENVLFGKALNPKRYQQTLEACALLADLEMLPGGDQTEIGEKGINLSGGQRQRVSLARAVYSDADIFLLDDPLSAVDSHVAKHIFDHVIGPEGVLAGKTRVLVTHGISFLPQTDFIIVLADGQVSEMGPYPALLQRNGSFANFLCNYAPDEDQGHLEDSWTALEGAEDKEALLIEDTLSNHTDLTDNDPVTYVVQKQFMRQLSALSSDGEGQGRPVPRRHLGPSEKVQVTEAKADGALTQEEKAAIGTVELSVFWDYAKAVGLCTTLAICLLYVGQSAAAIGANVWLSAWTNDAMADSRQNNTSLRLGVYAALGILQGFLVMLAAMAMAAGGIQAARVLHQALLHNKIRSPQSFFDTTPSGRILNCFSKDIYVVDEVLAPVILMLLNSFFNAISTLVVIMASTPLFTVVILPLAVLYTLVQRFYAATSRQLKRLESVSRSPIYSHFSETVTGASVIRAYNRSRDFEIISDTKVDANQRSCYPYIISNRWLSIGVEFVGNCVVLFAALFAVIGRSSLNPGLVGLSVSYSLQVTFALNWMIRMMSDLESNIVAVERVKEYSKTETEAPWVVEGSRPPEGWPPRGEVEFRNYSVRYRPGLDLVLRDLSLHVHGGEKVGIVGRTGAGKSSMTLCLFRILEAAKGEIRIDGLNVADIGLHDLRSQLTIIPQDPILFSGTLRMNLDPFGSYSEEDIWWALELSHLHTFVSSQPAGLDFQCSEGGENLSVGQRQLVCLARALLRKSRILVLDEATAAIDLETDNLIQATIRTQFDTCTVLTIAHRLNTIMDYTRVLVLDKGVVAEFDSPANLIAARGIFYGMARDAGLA
Description: […]

Sprague-Dawley rats = experiment: 28-day Oral Gavage Toxicity and Toxicokinetic Study in Rats; format: in vivo
Description: In the longer-term studies Sprague-Dawley rats were administered PF-04895162 once daily for 28 days or 6 months at doses up to 100 mg/kg/day. […] The drug was well absorbed into the systemic circulation of male and female rats following oral administration for 6 months.

healthy subjects = details: cited from earlier work; for subjects with mild/moderate transaminase elevations: ref Pfizer data on file

In the case of O=C(Cc1ccc(F)cc1)Nn1c(C2CC2)nc2cc(F)ccc2c1=O [PF‐04895162, N‐(2‐cyclopropyl‐7‐fluoro‐4‐oxoquinazolin‐3(4H)‐yl)‐2‐(4‐fluorophenyl)ethanamide], the IC50 at 72 h [1] is reported as roughly 130 µM, the AC50 (human hepatocytes) is reported as greater than 125 µM and the “effect on MRP3” value (MRP3) is reported as “no inhibitory effect”. The “few feces, incidence” value (Sprague-Dawley rats; 100 mg/kg, females) was 6/15, the “head tremors, incidence” value (Sprague-Dawley rats; 100 mg/kg, females) was 2/15 and the “rough haircoat, incidence” value (Sprague-Dawley rats; 100 mg/kg, females) was 4/15. For the same compound, the “clear oral discharge, incidence” value (Sprague-Dawley rats; 100 mg/kg, males) was 2/15, the “microscopic findings in the liver” value (Sprague-Dawley rats; 100 mg/kg/day for 28 days) was “No treatment-related microscopic findings” and the body temperature (Sprague-Dawley rats; 3, 30, 100 mg/kg, 28 days) was “no apparent treatment-related effect”. The clinical pathology data (Sprague-Dawley rats; 3, 30, 100 mg/kg, 28 days) was “no apparent treatment-related effects”, the “gross pathology and mean organ weights” value (Sprague-Dawley rats; 3, 30, 100 mg/kg, 28 days) was “no obvious treatment-related gross pathology findings or mean organ weight changes” and the mortality (Sprague-Dawley rats; 3, 30, 100 mg/kg, 28 days) was “no mortality”. For the same compound, the liver weights (Sprague-Dawley rats; 28 days, up to 100 mg/kg/day) was “Increased liver weights”, the “Day 28 mean body weight” value (Sprague-Dawley rats; females, 3 mg/kg) was 101 % of control and the “Weeks 1-4 food consumption” value (Sprague-Dawley rats; females, 3 mg/kg) was 101 % of control. For the same compound, the Mean liver weight (Sprague-Dawley rats; females, 3 mg/kg (cell cut, unit not shown)) was 111, the “Day 28 mean body weight” value (Sprague-Dawley rats; females, 30 mg/kg) was 97 % of control and the “Weeks 1-4 food consumption” value (Sprague-Dawley rats; females, 30 mg/kg) was 97 % of control. The Mean liver weight (Sprague-Dawley rats; females, 30 mg/kg (cell cut, unit not shown)) was 106, the “Day 28 mean body weight” value (Sprague-Dawley rats; females, 100 mg/kg) was 95 % of control and the “Weeks 1-4 food consumption” value (Sprague-Dawley rats; females, 100 mg/kg) was 88 % of control. The “Day 28 mean body weight” value (Sprague-Dawley rats; males, 3 mg/kg) was 100 % of the mean control weight, the “Weeks 1-4 food consumption” value (Sprague-Dawley rats; males, 3 mg/kg) was 99 % of the mean control food consumption and the “Day 28 mean body weight” value (Sprague-Dawley rats; males, 30 mg/kg) was 92 % of the mean control weight. For the same compound, the “Weeks 1-4 food consumption” value (Sprague-Dawley rats; males, 30 mg/kg) was 95 % of the mean control food consumption, the “Day 28 mean body weight” value (Sprague-Dawley rats; males, 100 mg/kg) was 90 % of the mean control weight and the “Weeks 1-4 food consumption” value (Sprague-Dawley rats; males, 100 mg/kg) was 87 % of the mean control food consumption. For the same compound, the transaminases (Sprague-Dawley rats; once daily for 28 days, up to 100 mg/kg/day) was “No transaminase elevations”, the “subjects with mild/moderate transaminase elevations” value (healthy subjects; 250 mg BID for 7 days) was “one of 12 subjects” and the “subjects with mild/moderate transaminase elevations” value (healthy subjects; 300 mg BID for 7 days) was “one of 12 subjects”. For the same compound, the “liver injury in healthy subjects” value (healthy subjects; multiple doses up to 200 mg BID for 7 days) was “No evidence of liver injury” and the “liver injury in healthy subjects” value (healthy subjects; single dose studies up to 600 mg) was “No evidence of liver injury”.
